Results on six molecules are retold here after PMC3826149, “Red Algal Bromophenols as Glucose 6-Phosphate Dehydrogenase Inhibitors” (Marine Drugs, 2013).

For experiment [1], the target named is T1, glucose 6-phosphate dehydrogenase (G6PD) (Leuconostoc mesenteroides, UniProt P11411).
T1 construct: purchased Sigma-Aldrich (St. Louis, MO, USA)
T1 sequence (P11411 1-486): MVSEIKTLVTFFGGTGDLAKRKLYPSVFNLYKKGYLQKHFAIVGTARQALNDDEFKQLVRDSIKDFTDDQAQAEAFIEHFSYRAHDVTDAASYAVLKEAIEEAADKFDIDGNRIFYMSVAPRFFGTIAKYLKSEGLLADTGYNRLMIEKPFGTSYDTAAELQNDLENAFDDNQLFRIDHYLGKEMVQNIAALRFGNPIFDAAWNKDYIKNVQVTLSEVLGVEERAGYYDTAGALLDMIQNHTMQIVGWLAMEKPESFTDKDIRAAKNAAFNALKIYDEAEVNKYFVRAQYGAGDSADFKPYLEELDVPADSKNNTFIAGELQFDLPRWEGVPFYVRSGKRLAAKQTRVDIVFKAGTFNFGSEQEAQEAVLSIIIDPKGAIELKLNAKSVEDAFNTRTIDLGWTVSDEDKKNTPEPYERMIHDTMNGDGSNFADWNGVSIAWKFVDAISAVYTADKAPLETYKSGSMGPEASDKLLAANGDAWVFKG
Description: G6PD enzyme inhibition assay (colorimetric, WST-1/1-methoxy PMS). The experiment is classed as biochemical. As to conditions: for IC50: Mean ± SD (n = 3), glucose 6-phosphate 3.0 mM, NADP+ 0.3 mM, read-out: IC50 on glucose 6-phosphate dehydrogenase (G6PD) reaction; for G6PD inhibition in words: qualitative statement. The source says:
G6PD (EC 1.1.1.49) from Leuconostoc mesenteroides was purchased from Sigma-Aldrich (St. Louis, MO, USA). WST-1 and 1-methoxy-5-methylphenazinium methylsulfate (1-methoxy PMS) were purchased from Dojindo Laboratories (Mashiki, Kumamoto, Japan) and oxidized nicotinamide adenine dinucleotide phosphate (NADP^+) from Oriental Yeast Industries (Tokyo, Japan). Glucose 6-phosphate was purchased from Wako Pure Chemicals (Tokyo, Japan). Epigallocatechin gallate (EGCG) was purchased from Cayman Chemical Company (Ann Arbor, MI, USA). Thin layer chromatography (TLC) was carried out using a glass plate precoated with silica gel 60 F254 and RP-18 (Merck, Darmstadt, Germany), and spots were detected under UV light and visualized by spraying 50% sulfuric acid and potassium ferricyanide-ferric chloride reagents. NMR spectra were recorded in acetone-d6 on a Bruker AMX-500 (Karlsruhe, Germany) spectrometer at 500 MHz for proton and 125 MHz for carbon chemical shifts. Field desorption-MS spectra were recorded on a JEOL JMS-T100GCV spectrometer (Tokyo, Japan).
Enzyme assay was carried out by colorimetric method as described in literature with slight modification. The reaction mixture was prepared by adding 135 mM Tris-HCl buffer (pH 7.8, 675 μL), 30 mM glucose 6-phosphate (100 μL), 3 mM NADP^+ (100 μL), 20 mM MgCl2 (100 μL) and test materials in MeOH (15 μL). Reaction was initiated by adding 0.035 U/mL G6PD solution (10 μL) to the reaction mixture. Each reaction was carried out at 25 °C for 15 min and terminated by adding 1 mL of saturated aqueous NaCl solution. For determination of produced NADPH, 0.05 mM WST-1 (400 μL) and 0.025 mM 1-methoxy PMS (400 μL) were mixed to the reaction mixture (400 μL) and the absorbance was measured at 438 nm. EGCG was used as a positive control.
In general terms: Tetrazolium dyes change colour on reduction, which living cells bring about.

Experiment [2] concerns the target purified α-glucosidase. The arrangement: method as in PMID 20629879. Conditions: previous study; cited from earlier work.
The mark [3] stands for this setting: read-out: Inhibition (%) of G6PD.

The term IC50 denotes the midpoint of a concentration-inhibition curve. Take `O=Cc1cc(Br)c(O)c(Br)c1` [Compound 1]: the half-maximal inhibitory concentration (IC50) in experiment [1] was 76.6 ± 1.1 µM.

One may read the inhibition as the share of the control response that was lost under treatment. As for `OCc1cc(O)c(O)c(Br)c1` [Compound 2], in experiment [1], the half-inhibitory concentration (IC50) was greater than 370 µM and the “G6PD inhibition in words” value is on record as “low inhibition”. The inhibition at 370 µM in experiment [1] (setting [3]) was 37.6%.

`COCc1cc(O)c(O)c(Br)c1` [Compound 3]: in experiment [1], the concentration for half-maximal inhibition (IC50) is greater than 340 µM and the “G6PD inhibition in words” value is recorded as “low inhibition”. Also, the inhibition at 340 µM in experiment [1] (setting [3]) was 35.7%.

`OCc1cc(O)c(O)c(Br)c1Cc1cc(O)c(O)c(Br)c1Br` [Compound 4]: the IC50 in experiment [1] turned out to be 4.01 ± 0.3 µM.

With `Oc1cc(COCc2cc(O)c(O)c(Br)c2Br)c(Br)c(Br)c1O` [Compound 5], the concentration for half-maximal inhibition (IC50) in experiment [2] is 1000 to 1200 µM; in experiment [1], 0.85 ± 0.1 µM. Further, the “fold lower IC50 value than epigallocatechin gallate (EGCG)” value in experiment [1] (G6PD IC50 relative to known inhibitor EGCG) is listed as 9.1 fold.

With `O=C(O[C@@H]1Cc2c(O)cc(O)cc2O[C@@H]1c1cc(O)c(O)c(O)c1)c1cc(O)c(O)c(O)c1` [Epigallocatechin gallate, reference compound], the 50% inhibitory concentration (IC50) in experiment [1] worked out at 7.7 ± 0.14 µM.
